Data on four compounds can be found in paper PMC4269415, “Replication Attempt: “Effect of BMAP-28 Antimicrobial Peptides on Leishmania Major Promastigote and Amastigote Growth: Role of Leishmanolysin in Parasite Survival”” (PLoS ONE, 2014).

“And” between values parts separate entries of the source, which are not always exact repeats. Identical values can stand only once. Like-named read-outs stand apart in the source and are kept apart here. Square brackets hold non-standard residues; d marks the D form. Ends that are not written are not given here. Peptide text beside a SMILES is read from it.

For series [1], the system named is Leishmania major promastigotes (strain MHOM/SN/74/SD). The series is classed as cell-based. Particulars: for % Viability (mean), replication: % of untreated control, calculated from the dose response curve; for % Viability (mean), combined original and replication: meta-analysis combining original and replication studies; for d Effect Size (Cohen's d), combined: original and replication combined. The procedure:
The promastigote viability assays were conducted by the Anti-Infectives Screening Core Facility at New York University School of Medicine (https://www.scienceexchange.com/facilities/anti-infectives-screening-and-insectary-core-facilities-nyu). All assays were performed by investigators blinded to the reagents under study. 500 µM stocks of peptides were made by resuspending 4 mg of each peptide (M.W. 3131.92) in 2.554 mL of distilled sterile water. Each peptide was tested in triplicate three independent times at 50 µM, 25 µM, 12.5 µM, 6.25 µM, 3.125 µM, 1.5625 µM, 0.78125 µM, and 0.390625 µM. L. major strain MHOM/SN/74/SD (ATCC, PRA-384) was used in these studies. These cells were routinely cultured at 26°C in M-199 medium (Gibco, Grand Island, NY), supplemented with 10% heat inactivated fetal calf serum (Hyclone, Logan) and Pen/Strep (Gibco, Grand Island, NY). Mid-log phase promastigotes at concentrations of 5×10^6 per well were seeded in 96-well tissue culture plates. Heat-killed parasites, prepared by incubation at 99°C for 30 minutes, served as positive controls for the viability assays. Peptides were incubated with the cells for 4 hours at 26°C. A 20 µL volume of PrestoBlue (Life Technologies, Carlsbad, CA) was added to each well and incubated at 37°C for 3 hours. Fluorescence at excitation 530 nm and 590 nm emission wavelengths was measured using a plate reader (VICTOR, Perkin Elmer, US). Background fluorescence from media alone controls was subtracted from each reading and promastigote viability was expressed as a percentage of the untreated control.
An independent-samples t-test was conducted to compare promastigote viability in peptide treated and untreated conditions. A Fisher combined probability test was used to combine the original and replication studies values into a single combined study value for each peptide and peptide concentration. To provide a standardized measure of the effect we used cohen's d.

The test system of series [2] is Leishmania major promastigotes. As to conditions: 4 h, % of untreated control, determined from bar graph Fig. 1A, ref Lynn et al. [5], cited from earlier work. As for the experimental part: Table 1 Promastigote viability assay of Leishmania major when treated with 0.5 µM or 2 µM BMAP-28 variants. | column: % Viability (mean) || This study describes an attempt to replicate experiments from the paper “Effect of BMAP-28 Antimicrobial Peptides on Leishmania major Promastigote and Amastigote Growth: Role of Leishmanolysin in Parasite Survival,” which was submitted to the Reproducibility Initiative for independent validation. The cathelicidin bovine myeloid antimicrobial peptide 28 (BMAP-28) and its isomers were previously shown to have potent antiparasitic activity against Leishmania major.

In series [3] the test system is Leishmania major promastigotes. Kind of series: Promastigote viability assay of the original study (Fig. 1A of Lynn et al.). The series is classed as cell-based. Particulars: from data of ref Lynn et al. [5].
Series [4] concerns mammalian epithelial cells and monocytes. Particulars: cited from earlier work.
[5] abbreviates: 0.5 µM peptide, 4 h, three biological replicates.
[6] abbreviates: 2 µM peptide, 4 h, three biological replicates.

Turning to `CC[C@@H](C)[C@@H](NC(=O)[C@H]1CCCN1C(=O)CNC(=O)[C@@H](Cc1ccc(O)cc1)NC(=O)[C@@H](CCCCN)NC(=O)[C@@H](CCCCN)NC(=O)[C@@H](Cc1c[nH]c2ccccc12)NC(=O)[C@@H](C)NC(=O)[C@@H](CCCNC(=N)N)NC(=O)[C@@H](CC(C)C)NC(=O)[C@H](NC(=O)[C@@H](CCCCN)NC(=O)[C@@H](CCCNC(=N)N)NC(=O)CNC(=O)[C@@H](CC(C)C)NC(=O)[C@@H](CO)NC(=O)[C@@H](CCCNC(=N)N)NC(=O)[C@@H](CC(C)C)NC(=O)CNC(=O)CN)[C@H](C)CC)C(=O)N[C@@H](C(=O)N[C@@H](C(=O)N1CCC[C@@H]1C(=O)N[C@@H](C(=O)N[C@@H](C(=O)N[C@H](CCCNC(=N)N)C(=O)N[C@@H](C(=O)NCC(=O)O)[C@H](C)CC)[C@H](C)CC)[C@H](C)CC)C(C)C)[C@H](C)CC` [D-BMAP-28] (H-GG[dL][dR][dS][dL]G[dR][dK][dI][dL][dR][dA][dW][dK][dK][dY]G[dP][dI][dI][dV][dP][dI][dI][dR][dI]G-OH; N-terminus assumed), the entries for the “% Viability (mean), replication” value in series [1] (setting [5]) and in series [1] (setting [6]) were 92.40% and 73.26%, respectively. The “% Viability (mean), combined original and replication” value in series [1] (0.5 µM peptide) is reported as “not significantly modified”. Besides, the “d Effect Size (Cohen's d), combined” value in series [1] (2 µM peptide vs untreated) came out at 16.67. In series [1] (4 h), the 50% inhibitory concentration (IC50) (as a rule, the concentration that gives 50% inhibition) stood at 3.55 µM. The IC90 (as a rule, the point of the concentration-response curve where the effect stands at 90%) in series [1] (4 h) worked out at 9.85 µM. For the same compound, the “% Viability (mean), original study” value in series [2] (0.5 µM peptide) is 68.75%; in series [2] (2 µM peptide), 6% and 5.50%. The “d Effect Size (Cohen's d), original study” value in series [3] (0.5 µM peptide vs untreated) worked out at 2.55; in series [3] (2 µM peptide vs untreated), 37.8.

Turning to `CC[C@@H](C)[C@@H](NC(=O)CN)C(=O)N[C@H](CCCNC(=N)N)C(=O)N[C@@H](C(=O)N[C@@H](C(=O)N1CCC[C@@H]1C(=O)N[C@@H](C(=O)N[C@@H](C(=O)N[C@@H](C(=O)N1CCC[C@@H]1C(=O)NCC(=O)N[C@H](Cc1ccc(O)cc1)C(=O)N[C@H](CCCCN)C(=O)N[C@H](CCCCN)C(=O)N[C@H](Cc1c[nH]c2ccccc12)C(=O)N[C@H](C)C(=O)N[C@H](CCCNC(=N)N)C(=O)N[C@H](CC(C)C)C(=O)N[C@@H](C(=O)N[C@H](CCCCN)C(=O)N[C@H](CCCNC(=N)N)C(=O)NCC(=O)N[C@H](CC(C)C)C(=O)N[C@H](CO)C(=O)N[C@H](CCCNC(=N)N)C(=O)N[C@H](CC(C)C)C(=O)NCC(=O)NCC(=O)O)[C@H](C)CC)[C@H](C)CC)[C@H](C)CC)C(C)C)[C@H](C)CC)[C@H](C)CC` [RI-BMAP-28] (H-G[dI][dR][dI][dI][dP][dV][dI][dI][dP]G[dY][dK][dK][dW][dA][dR][dL][dI][dK][dR]G[dL][dS][dR][dL]GG-OH; N-terminus assumed), the “% Viability (mean), replication” value was 94.64% in series [1] (setting [5]) and 76.64% in series [1] (setting [6]). Also, the “% Viability (mean), combined original and replication” value in series [1] (0.5 µM peptide) is “not significantly modified”. Moreover, in series [1] (2 µM peptide vs untreated), the “d Effect Size (Cohen's d), combined” value was found to be 6.31. The IC50 in series [1] (4 h) turned out to be 4.55 µM. The compound further came in with an IC90 in series [1] (4 h) of 20 µM. The “% Viability (mean), original study” value in series [2] (0.5 µM peptide) is 103.00%; in series [2] (2 µM peptide) it was 18% and 17.50%. The “d Effect Size (Cohen's d), original study” value in series [3] (0.5 µM peptide vs untreated) is on record as −1.20; in series [3] (2 µM peptide vs untreated), 6.88. Further, the “toxicity to mammalian epithelial cells and monocytes (in words)” value in series [4] is given as “limited toxicity”.

On to “GGLRSLGRKILRAWKKYGPIIVPIIRI-NH2 [L-BMAP-28-NH2, amidated L-BMAP-28 peptide]”, for which the “d Effect Size (Cohen's d), replication” value in series [1] (0.5 µM peptide vs untreated) stood at 0.62; in series [1] (2 µM peptide vs untreated), 0.81. The “d Effect Size (Cohen's d), combined” value in series [1] (0.5 µM peptide vs untreated) is given as 0.11; in series [1] (2 µM peptide vs untreated) it was 2.65. The “% Viability (mean), replication” value in series [1] (setting [5]) is recorded as 95.55%; in series [1] (setting [6]), 94.15%. The “% Viability (mean), combined original and replication” value was found to be 99.40% in series [1] (0.5 µM peptide) and 75.45% in series [1] (2 µM peptide). Besides, the IC50 in series [1] (4 h at 26°C, PrestoBlue fluorescence, dose-response 0.39-50 µM, three biological replicates in triplicate, read-out: IC50, promastigote viability) stood at 5.83 µM. In series [1] (4 h at 26°C, PrestoBlue fluorescence, dose-response 0.39-50 µM, three biological replicates, read-out: IC90, promastigote viability), the IC90 amounted to 10.2 µM.

With “GGLRSLGRKILRAWKKYGPIIVPIIRIG [L-BMAP-28]”, in series [1] (4 h), the IC50 is 17.1 µM and the IC90 is 25.2 µM.
